Experimental findings from ChEMBL document CHEMBL3352497, “Design and optimization of novel 4-(2-fluorophenoxy)quinoline derivatives bearing a hydrazone moiety as c-Met kinase inhibitors” (Eur J Med Chem, 2014) are described below.

A value given as a limit tells only on which side of the number the result lay.

The nature of test [1]: Antiproliferative activity against human MKN45 cells assessed as inhibition of cell growth after 72 hrs by MTT assay. The class given is functional, cell-based. The settings on record: MKN-45, 72 h.
Test [2] is described as follows: Antiproliferative activity against human U87MG cells assessed as inhibition of cell growth after 72 hrs by MTT assay. The class given is functional, cell-based, U-87MG ATCC. Conditions: U-87 MG.
In test [3] the target is Hepatocyte growth factor receptor (Homo sapiens, UniProt P08581). The test is described as follows: Inhibition of c-Met (unknown origin) using poly (Glu, Tyr) 4:1 substrate by HTRF assay.
Test [4] concerns the target Macrophage-stimulating protein receptor (Homo sapiens, UniProt Q04912). The test is described as follows: Inhibition of RON (unknown origin).
Test [5] deals with Mast/stem cell growth factor receptor Kit (Homo sapiens, UniProt P10721). The test is described as follows: Inhibition of c-KIT (unknown origin).
Test [6] deals with T1, Receptor-type tyrosine-protein kinase FLT3 (Homo sapiens, UniProt P36888).
T1 sequence (P36888 whole entry): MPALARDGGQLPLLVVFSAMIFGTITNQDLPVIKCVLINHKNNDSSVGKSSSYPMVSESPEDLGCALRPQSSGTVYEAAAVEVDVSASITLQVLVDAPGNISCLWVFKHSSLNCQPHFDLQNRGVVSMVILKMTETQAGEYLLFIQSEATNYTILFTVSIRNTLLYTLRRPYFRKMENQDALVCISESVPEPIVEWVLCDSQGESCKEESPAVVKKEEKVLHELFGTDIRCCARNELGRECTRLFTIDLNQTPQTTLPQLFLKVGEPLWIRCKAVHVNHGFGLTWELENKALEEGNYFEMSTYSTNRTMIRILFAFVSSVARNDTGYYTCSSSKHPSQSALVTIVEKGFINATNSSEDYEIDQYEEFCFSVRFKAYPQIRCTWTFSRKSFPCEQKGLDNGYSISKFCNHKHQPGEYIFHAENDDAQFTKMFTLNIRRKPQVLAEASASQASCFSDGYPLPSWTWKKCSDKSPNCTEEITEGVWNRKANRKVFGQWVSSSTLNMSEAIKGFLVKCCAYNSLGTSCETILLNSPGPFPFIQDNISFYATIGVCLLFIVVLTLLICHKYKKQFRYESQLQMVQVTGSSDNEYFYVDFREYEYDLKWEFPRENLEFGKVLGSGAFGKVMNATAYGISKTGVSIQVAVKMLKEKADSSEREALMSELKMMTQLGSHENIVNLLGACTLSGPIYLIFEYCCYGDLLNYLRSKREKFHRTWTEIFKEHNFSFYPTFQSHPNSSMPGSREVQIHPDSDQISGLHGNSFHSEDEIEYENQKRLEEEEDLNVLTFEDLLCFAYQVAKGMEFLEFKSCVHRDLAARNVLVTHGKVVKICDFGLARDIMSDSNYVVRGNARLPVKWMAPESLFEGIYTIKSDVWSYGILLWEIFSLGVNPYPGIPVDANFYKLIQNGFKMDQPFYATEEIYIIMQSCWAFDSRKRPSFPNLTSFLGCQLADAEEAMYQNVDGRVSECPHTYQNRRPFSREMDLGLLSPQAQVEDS
The test is described as follows: Inhibition of FLT3 (unknown origin).

The target of test [7] is Vascular endothelial growth factor receptor 2 (Homo sapiens, UniProt P35968). Kind of test: Inhibition of KDR (unknown origin).
For test [8], the target named is Epidermal growth factor receptor (Homo sapiens, UniProt P00533). The test is described as follows: Inhibition of EGFR (unknown origin).
Test [9] has as its system HT-29. The test is described as follows: cells. Conditions: Homo sapiens, HT-29, 72 h.
Description: Antiproliferative activity against human HT-29 cells assessed as inhibition of cell growth after 72 hrs by MTT assay
The nature of test [10]: cells. Conditions: Homo sapiens, NCI-H460, 72 h.
In test [11] the test system is A549. The test is described as follows: cells. Conditions: Homo sapiens, A549, 72 h.
Description: Antiproliferative activity against human A549 cells assessed as inhibition of cell growth after 72 hrs by MTT assay

Hepatocyte growth factor receptor, sequence (P08581 whole entry): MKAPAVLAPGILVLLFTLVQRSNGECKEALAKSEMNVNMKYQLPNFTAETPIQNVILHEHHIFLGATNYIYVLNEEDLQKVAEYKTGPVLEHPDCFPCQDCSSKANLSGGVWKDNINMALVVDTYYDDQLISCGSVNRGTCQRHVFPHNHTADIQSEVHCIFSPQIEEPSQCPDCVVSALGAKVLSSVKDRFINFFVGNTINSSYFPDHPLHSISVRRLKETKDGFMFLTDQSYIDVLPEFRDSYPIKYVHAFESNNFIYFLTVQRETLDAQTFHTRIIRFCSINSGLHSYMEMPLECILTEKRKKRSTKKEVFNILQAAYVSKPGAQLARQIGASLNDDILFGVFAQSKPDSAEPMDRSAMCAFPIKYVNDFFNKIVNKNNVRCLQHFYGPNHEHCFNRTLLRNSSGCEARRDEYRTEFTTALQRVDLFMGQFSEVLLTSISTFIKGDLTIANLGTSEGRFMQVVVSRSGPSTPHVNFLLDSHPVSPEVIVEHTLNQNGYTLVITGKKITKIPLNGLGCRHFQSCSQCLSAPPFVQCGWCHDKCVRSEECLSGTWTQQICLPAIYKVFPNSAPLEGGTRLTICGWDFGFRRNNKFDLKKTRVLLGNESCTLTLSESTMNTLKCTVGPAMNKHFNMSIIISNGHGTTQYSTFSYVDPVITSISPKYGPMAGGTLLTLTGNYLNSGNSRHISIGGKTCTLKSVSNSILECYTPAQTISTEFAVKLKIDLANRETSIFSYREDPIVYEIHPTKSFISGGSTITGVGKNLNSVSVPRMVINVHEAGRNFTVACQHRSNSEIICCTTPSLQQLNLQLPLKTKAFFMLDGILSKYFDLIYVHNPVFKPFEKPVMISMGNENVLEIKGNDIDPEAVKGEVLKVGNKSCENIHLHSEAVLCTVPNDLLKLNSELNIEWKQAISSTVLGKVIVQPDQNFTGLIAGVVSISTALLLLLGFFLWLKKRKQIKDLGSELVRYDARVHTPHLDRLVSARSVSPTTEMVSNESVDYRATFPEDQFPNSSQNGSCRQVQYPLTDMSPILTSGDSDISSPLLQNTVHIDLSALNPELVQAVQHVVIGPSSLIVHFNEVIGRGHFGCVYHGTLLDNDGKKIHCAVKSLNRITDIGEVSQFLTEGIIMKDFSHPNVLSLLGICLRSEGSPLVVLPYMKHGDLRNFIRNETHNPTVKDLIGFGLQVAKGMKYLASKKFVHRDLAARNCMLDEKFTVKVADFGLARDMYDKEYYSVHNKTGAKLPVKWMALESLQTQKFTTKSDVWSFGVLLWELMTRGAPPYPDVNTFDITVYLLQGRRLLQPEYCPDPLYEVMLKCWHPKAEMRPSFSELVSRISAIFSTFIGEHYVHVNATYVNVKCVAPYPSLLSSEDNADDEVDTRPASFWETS
Macrophage-stimulating protein receptor, sequence (Q04912 25-304 limits assumed): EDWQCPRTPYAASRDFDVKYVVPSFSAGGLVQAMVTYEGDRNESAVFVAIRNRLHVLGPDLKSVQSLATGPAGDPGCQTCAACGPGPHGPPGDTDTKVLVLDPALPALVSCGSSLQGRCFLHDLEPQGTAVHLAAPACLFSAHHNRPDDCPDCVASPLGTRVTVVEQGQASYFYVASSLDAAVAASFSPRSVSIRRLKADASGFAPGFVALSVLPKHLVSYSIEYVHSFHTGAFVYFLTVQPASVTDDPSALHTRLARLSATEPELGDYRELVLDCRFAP
Macrophage-stimulating protein receptor, sequence (Q04912 310-1400 limits assumed): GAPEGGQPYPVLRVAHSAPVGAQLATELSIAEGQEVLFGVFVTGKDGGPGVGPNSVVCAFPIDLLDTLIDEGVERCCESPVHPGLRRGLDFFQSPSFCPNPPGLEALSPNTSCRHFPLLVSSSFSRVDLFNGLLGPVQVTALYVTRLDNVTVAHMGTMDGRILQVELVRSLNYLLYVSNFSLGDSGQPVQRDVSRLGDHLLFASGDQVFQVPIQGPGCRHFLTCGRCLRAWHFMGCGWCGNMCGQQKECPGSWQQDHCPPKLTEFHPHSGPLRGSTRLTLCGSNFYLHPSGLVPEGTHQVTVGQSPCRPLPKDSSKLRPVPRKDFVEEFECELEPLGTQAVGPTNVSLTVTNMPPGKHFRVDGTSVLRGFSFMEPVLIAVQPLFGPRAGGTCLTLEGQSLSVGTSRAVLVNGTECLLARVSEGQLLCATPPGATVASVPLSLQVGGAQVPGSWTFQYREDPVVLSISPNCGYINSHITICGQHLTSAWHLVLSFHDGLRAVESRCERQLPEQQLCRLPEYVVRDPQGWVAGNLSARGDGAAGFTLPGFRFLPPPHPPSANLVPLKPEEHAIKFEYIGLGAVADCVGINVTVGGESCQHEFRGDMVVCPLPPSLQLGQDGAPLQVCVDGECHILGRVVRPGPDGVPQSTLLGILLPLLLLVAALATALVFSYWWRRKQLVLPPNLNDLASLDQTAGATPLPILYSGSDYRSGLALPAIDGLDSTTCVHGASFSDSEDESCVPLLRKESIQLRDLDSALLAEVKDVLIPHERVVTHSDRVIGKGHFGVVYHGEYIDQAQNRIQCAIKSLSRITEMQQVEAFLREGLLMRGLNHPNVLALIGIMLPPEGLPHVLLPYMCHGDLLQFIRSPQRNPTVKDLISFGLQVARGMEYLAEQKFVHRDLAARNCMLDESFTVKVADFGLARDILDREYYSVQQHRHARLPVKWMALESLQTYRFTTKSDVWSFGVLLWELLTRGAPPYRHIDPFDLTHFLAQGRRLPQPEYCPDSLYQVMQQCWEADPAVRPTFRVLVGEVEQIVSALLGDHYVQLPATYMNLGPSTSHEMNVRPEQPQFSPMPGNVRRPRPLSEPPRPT
Vascular endothelial growth factor receptor 2, sequence (P35968 whole entry): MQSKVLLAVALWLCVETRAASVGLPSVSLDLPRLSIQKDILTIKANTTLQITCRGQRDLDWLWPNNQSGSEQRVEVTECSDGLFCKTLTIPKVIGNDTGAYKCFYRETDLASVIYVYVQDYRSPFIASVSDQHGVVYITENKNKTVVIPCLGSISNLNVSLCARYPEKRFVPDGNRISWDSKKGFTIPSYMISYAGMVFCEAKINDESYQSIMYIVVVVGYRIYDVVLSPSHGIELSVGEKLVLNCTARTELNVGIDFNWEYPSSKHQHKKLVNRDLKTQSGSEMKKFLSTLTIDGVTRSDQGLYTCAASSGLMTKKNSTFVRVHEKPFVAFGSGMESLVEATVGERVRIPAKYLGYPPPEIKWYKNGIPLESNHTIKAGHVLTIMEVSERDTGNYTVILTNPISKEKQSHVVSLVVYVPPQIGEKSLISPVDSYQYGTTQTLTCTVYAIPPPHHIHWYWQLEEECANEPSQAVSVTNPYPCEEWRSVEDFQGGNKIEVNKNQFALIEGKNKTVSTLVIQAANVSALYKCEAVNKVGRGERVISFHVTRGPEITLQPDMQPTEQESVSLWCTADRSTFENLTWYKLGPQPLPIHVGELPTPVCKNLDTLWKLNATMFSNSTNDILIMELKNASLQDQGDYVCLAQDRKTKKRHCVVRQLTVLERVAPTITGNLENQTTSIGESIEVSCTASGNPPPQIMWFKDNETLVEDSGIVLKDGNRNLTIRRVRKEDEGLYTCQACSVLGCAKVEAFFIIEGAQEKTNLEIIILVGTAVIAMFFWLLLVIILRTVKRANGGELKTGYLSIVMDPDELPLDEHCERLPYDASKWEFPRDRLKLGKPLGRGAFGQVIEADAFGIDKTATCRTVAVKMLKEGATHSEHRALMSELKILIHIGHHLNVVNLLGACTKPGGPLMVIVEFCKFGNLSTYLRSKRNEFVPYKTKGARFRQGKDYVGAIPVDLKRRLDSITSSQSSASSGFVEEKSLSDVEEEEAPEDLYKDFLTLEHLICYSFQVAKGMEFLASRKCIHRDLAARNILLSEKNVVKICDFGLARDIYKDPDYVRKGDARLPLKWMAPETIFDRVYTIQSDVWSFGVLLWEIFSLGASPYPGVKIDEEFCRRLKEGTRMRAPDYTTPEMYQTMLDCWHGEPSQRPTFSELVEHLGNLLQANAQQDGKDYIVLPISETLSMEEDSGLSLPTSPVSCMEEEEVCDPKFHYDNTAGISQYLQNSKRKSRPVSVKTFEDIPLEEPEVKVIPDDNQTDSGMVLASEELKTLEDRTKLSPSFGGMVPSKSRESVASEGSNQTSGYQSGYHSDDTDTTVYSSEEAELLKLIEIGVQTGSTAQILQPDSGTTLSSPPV
Mast/stem cell growth factor receptor Kit, sequence (P10721 whole entry): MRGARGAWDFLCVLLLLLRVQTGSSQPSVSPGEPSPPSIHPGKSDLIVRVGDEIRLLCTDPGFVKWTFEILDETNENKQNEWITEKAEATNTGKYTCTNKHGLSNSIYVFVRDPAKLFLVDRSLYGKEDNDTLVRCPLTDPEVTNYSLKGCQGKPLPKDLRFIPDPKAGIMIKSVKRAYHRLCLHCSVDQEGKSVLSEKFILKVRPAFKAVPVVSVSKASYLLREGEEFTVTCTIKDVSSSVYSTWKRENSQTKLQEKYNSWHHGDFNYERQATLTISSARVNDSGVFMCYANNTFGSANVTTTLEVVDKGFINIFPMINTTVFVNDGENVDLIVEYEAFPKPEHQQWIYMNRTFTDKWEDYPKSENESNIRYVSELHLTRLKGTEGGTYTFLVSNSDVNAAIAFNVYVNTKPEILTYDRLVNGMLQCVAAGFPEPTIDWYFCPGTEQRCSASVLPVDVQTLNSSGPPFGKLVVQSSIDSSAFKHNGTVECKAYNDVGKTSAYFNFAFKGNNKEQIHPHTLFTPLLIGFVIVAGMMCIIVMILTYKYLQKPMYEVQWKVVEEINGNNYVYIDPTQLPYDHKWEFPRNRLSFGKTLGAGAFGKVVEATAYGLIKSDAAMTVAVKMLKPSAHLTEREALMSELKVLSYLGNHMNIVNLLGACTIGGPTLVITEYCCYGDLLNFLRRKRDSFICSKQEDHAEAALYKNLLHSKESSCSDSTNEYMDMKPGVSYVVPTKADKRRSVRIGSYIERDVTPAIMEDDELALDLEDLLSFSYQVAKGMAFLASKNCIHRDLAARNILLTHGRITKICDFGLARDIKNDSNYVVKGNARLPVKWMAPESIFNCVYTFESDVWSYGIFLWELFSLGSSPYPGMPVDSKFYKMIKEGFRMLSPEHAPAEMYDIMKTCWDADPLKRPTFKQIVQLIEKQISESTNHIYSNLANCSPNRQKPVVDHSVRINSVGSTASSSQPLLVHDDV

As to `COc1cc2c(Oc3ccc(CC(=O)N/N=C/c4ccc(C(F)(F)F)cc4)cc3F)ccnc2cc1OCCCN1CCCC1`, the IC50 in [1] came out at 0.37 µM; in [2], 0.29 µM; in test [3], 0.00186 µM; in [4] it was 0.0286 µM; in test [5], 0.045 µM; in [6], 0.39 µM. Further, the IC50 in test [7] is 0.56 µM; in [8] it was over 100 µM; in test [9], 0.15 µM; in test [10] it was 0.031 µM; in test [11], 0.08 µM.
Take `COc1cc2c(Oc3ccc(CC(=O)N/N=C/c4cccs4)cc3F)ccnc2cc1OCCCN1CCOCC1`: the IC50 in test [1] came to 1.82 µM; in [2], 1.15 µM; in test [9], 0.96 µM; in test [10], 0.28 µM; in test [11], 0.39 µM.
In the case of `COc1cc2c(Oc3ccc(CC(=O)N/N=C(/C)c4ccccc4)cc3F)ccnc2cc1OCCCN1CCOCC1`, the IC50 in test [1] is 0.97 µM; in test [2], 0.61 µM; in test [9] it was 0.54 µM; in [10], 0.19 µM; in [11], 0.35 µM.
For `COc1cc2c(Oc3ccc(CC(=O)N/N=C/c4ccc(C(F)(F)F)cc4)cc3F)ccnc2cc1OCCCN1CCOCC1` the same measures were 0.49 µM, 0.3 µM, 0.22 µM, 0.055 µM and 0.11 µM.
For `COc1cc(/C=N/NC(=O)Cc2ccc(Oc3ccnc4cc(OCCCN5CCOCC5)c(OC)cc34)c(F)c2)ccc1O` the same measures were 11.2 µM, 5.86 µM, 3.94 µM, 1.17 µM and 2.98 µM.
The corresponding values for `COc1cc2c(Oc3ccc(CC(=O)N/N=C(/C)c4ccc(F)cc4)cc3F)ccnc2cc1OCCCN1CCCC1` are 0.58 µM, 0.35 µM, 0.28 µM, 0.072 µM and 0.17 µM.
